Legend:
[1] = system: ciliated tracheal epithelium cells; test: Ciliary beat frequency (CBF) of murine tracheal slices; format: cell-based, C57BL/6N mice; settings: for CBFRatio (related to CBFBasal): mean ± SD
Experimental: Male and female C57BL/6N mice (Charles River, Sulzfeld, Germany, and own breeding at the Institute of Pharmaceutical and Medicinal Chemistry, University of Münster, Germany) were housed under standard conditions. Animal care followed the rules of German laws (Az. 53.5.32.7.1/MS-12668, Health and Veterinary Office Münster, Germany). The mice were sacrificed using CO2. Murine tracheal explants were placed in LHC-9 medium (Invitrogen, CA, USA), cut into 0.5 mm slices and stored at 37 °C and an atmosphere of 5% CO2. The medium was changed every 3 days. CBF was measured up to 7 days after dissection. Slices were placed in a 0.7 mL perfusion chamber at 37 °C and perfused with Krebs–Henseleit buffer (1 mL/min). The tissue bath was located at an inverted Nikon Eclipse Ti2 microscope (Nikon GmbH, Düsseldorf, Germany) with a 100× oil objective. Drosera dry extract (0.2 mg/mL) was solved in Krebs–Henseleit buffer containing 0.3% DMSO (DE). The amount of DMSO was not exceeding 0.3%; as for this concentration, no effects on CBF were reported. DFA was prepared as described above. […] 2″-O-Galloylhyperoside, ATP and salbutamol were solved without DMSO. In case DMSO was added, all test solutions of one experiment contained the same amount of DMSO. […] Videos were captured and analyzed by the SAVA software (Ammons Engineering, Clio, MI, USA). Ciliated cells exerted baseline frequencies in a range of 5 to 20 Hz, in agreement with the literature. Data were normalized to values of the last 5 min before changing to a test solution (CBFbasal), and effects on ciliary beating were expressed as a ratio (CBFRatio).

[2] = system: guinea-pig ileum; set-up: method as in PMID 11933852; settings: 10 µM; cited from earlier work
[3] = system: airway smooth muscle of mouse tracheal slices, acetylcholine-induced contraction; test: ACh-induced contraction of mouse tracheal slices (tissue bath); format: cell-based, C57BL/6N mice
Excerpt: Male and female C57BL/6N mice (Charles River, Sulzfeld, Germany, and own breeding at the Institute of Pharmaceutical and Medicinal Chemistry, University of Münster, Germany) were housed under standard conditions. Animal care followed the rules of German laws (Az. 53.5.32.7.1/MS-12668, Health and Veterinary Office Münster, Germany). The mice were sacrificed using CO2. A Mayflower horizontal tissue bath (Hugo Sachs Elektronik, Germany) was used to measure contractions. Murine tracheal slices of 3 mm were placed in the 5 mL tissue bath at a preload of 0.2 cN. Krebs–Henseleit buffer (37 °C) was continuously gassed (O2:CO2 95:5). Drosera dry extract (0.5 mg/mL) was solved in Krebs–Henseleit buffer containing 1 % DMSO (DE). DFA was obtained as described above. […] Control solutions contained equal amounts of DMSO depending on the respective test compound. Experiments were started after an equilibration time of 60 min. Tracheal tension was measured isometrically (force transducer F10 Type 375, amplifier TAM-A Type 705/1, evaluation software HSE ACAD 2.0, Harvard Apparatus GmbH, March-Hugstetten, Germany). […] Test solutions were added 10 min before the next ACh bolus. When using a high potassium solution (60 mM K^+), NaCl concentration was reduced to maintain osmolarity. At least 3 K^+-induced contractions (each 20 min) were averaged and taken as control contraction. The maximal contraction represents the highest value, while the plateau (plat.) was calculated in minutes 19–20.

[4] = target: T1, PDE4D (Homo sapiens, UniProt Q08499); test: PDE4D inhibitor assay (fluorescence polarization, cell-free); format: biochemical; settings: for IC50: cell-free, duplicates, 1% DMSO, CI = confidence interval
T1 construct: purchased Biomol (Hamburg, Germany) #60345
T1 sequence (Q08499 303-809 limits assumed): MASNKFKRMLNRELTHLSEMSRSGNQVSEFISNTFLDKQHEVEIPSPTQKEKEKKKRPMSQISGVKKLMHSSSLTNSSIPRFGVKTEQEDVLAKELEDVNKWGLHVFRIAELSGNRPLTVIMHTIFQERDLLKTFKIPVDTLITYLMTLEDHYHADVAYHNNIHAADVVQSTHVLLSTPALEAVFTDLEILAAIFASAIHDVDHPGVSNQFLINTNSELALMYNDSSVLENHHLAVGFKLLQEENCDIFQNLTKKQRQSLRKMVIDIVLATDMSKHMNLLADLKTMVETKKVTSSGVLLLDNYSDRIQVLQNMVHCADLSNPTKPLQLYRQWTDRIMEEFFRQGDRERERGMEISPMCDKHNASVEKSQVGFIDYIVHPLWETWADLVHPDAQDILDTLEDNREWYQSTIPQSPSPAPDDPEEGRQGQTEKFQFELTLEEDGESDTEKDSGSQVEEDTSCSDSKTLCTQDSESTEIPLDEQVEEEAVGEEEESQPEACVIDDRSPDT
Experimental: Assays were based on fluorescence polarization using fluorescein amidites-labeled cAMP and were performed according to the manufacturer’s instructions. Samples were recorded as duplicates in a 96-well plate containing equal amounts of DMSO (1%). […] The IC50 values were calculated by a fitting of sigmoidal dose–response curves (variable slope) with GraphPad Prism version 3.00 for Windows (GraphPad, San Diego, CA, USA).

[5] = target: T2, PDE1A (Homo sapiens, UniProt P54750); test: PDE1A inhibitor assay (fluorescence polarization, cell-free); format: biochemical; settings: for IC50: cell-free, duplicates, 1% DMSO, CI = confidence interval
T2 construct: purchased Biomol (Hamburg, Germany) #60310
T2 sequence (P54750 whole entry): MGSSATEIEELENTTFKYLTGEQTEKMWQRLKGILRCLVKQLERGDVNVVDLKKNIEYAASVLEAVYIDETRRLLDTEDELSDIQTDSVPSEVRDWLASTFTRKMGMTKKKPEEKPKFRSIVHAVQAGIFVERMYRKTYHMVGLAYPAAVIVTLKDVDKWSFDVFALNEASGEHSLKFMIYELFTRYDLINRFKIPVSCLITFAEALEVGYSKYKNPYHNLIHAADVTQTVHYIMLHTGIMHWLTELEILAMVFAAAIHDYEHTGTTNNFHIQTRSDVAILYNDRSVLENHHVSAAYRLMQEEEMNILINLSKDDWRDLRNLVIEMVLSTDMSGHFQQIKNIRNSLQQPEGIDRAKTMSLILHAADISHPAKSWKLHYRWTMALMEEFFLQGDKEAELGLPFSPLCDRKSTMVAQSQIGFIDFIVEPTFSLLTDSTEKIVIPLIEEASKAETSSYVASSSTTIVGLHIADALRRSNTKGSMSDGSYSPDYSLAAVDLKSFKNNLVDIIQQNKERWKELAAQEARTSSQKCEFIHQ
Experimental: The activity of PDE4D and PDE1A was measured with assay kits #60345 and #60310 from Biomol (Hamburg, Germany). Assays were based on fluorescence polarization using fluorescein amidites-labeled cAMP and were performed according to the manufacturer’s instructions. Samples were recorded as duplicates in a 96-well plate containing equal amounts of DMSO (1%). The fluorescence polarization was measured at excitation wavelengths between 480 and 516 nm and emission wavelengths between 530 and 540 nm by using the plate reader CLARIOstar (BMG Labtech, Ortenberg, Germany). The IC50 values were calculated by a fitting of sigmoidal dose–response curves (variable slope) with GraphPad Prism version 3.00 for Windows (GraphPad, San Diego, CA, USA).

CC(C)(C)NCC(O)c1ccc(O)c(CO)c1 (stereo not drawn) [salbutamol]
CBFRatio (related to CBFBasal) ([1]; 50 µM, minutes 5 to 10): 1.4 ± 0.3

O=c1c(O)c(-c2ccc(O)c(O)c2)oc2cc(O)cc(O)c12 [quercetin]
CBFRatio (related to CBFBasal) ([1]; 30 µM, minutes 10 to 15): 1.2 ± 0.2 | inhibition of carbachol-induced contractions [2]: more than 50% | abrogation of ACh-induced contraction on ASM ([3]; 10 µM): failed to abrogate | activity at 25 µM ([3]; Mus musculus, 25 µM, 10 min pretreatment, read-out: effect of 100 µM ACh (contraction force, % of control)): 74 ± 11% | activity at 50 µM ([3]; Mus musculus, 50 µM, 10 min pretreatment, read-out: effect of 100 µM ACh (contraction force, % of control)): 63 ± 7% | activity at 100 µM ([3]; Mus musculus, 100 µM, 10 min pretreatment, read-out: effect of 100 µM ACh (contraction force, % of control)): 21 ± 2% | IC50 [4]: 2 µM | IC50 [5]: 4 µM

O=c1c(O[C@@H]2O[C@H](CO)[C@H](O)[C@H](O)[C@H]2O)c(-c2ccc(O)c(O)c2)oc2cc(O)cc(O)c12 [Hyperoside, hyperoside]
ACh-mediated contraction force, % of control ([3]; 50 to 750 µM, all concentrations tested, 100 µM ACh): approximately 80% | maximal reduction of ACh-induced contraction force ([3]; maximal effect): 20–25% | IC50 [4]: 3 µM

COCc1nc2c([nH]1)c(=O)n(C)c(=O)n2CC(C)C [8MmIBMX, 8-methoxymethyl-IBMX]
increase of CBF on average ([1]; 100 µM): 20% | CBFRatio (related to CBFBasal) ([1]; 100 µM, minutes 10 to 15): 1.2 ± 0.1 | PDE4D activity (% of control without inhibitor) ([4]; 50 µM): 77 ± 6% | PDE4D activity (% of control without inhibitor) ([4]; 100 µM): 70 ± 2% | IC50 [5]: 12 µM

COc1ccc(C2CNC(=O)C2)cc1OC1CCCC1 (stereo not drawn) [rolipram]
increase of CBF on average ([1]; 30 µM): 20% | CBFRatio (related to CBFBasal) ([1]; 30 µM, minutes 10 to 15): 1.2 ± 0.2 | remaining activity at 100 µM ([5]; 100 µM, read-out: PDE1A activity (% of control without inhibitor)): 98.2 ± 0.6% | remaining activity at 300 µM ([5]; 300 µM, read-out: PDE1A activity (% of control without inhibitor)): 92 ± 2%

O=C(O[C@H]1[C@H](Oc2c(-c3ccc(O)c(O)c3)oc3cc(O)cc(O)c3c2=O)O[C@H](CO)[C@H](O)[C@@H]1O)c1cc(O)c(O)c(O)c1 [2″-O-galloylhyperoside]
CBFRatio (related to CBFBasal) ([1]; 300 µM, minutes 10 to 15): 1.11 ± 0.04 | ACh-induced contraction, % of control ([3]; 500 µM, 10 min pretreatment, 100 µM ACh): 61 ± 21% | ACh-induced contraction compared with the effect at 500 µM ([3]; 750 and 1000 µM, 100 µM ACh): did not significantly differ | IC50 [4]: 1.1 µM | IC50 [5]: 3 µM

Nc1ncnc2c1ncn2[C@@H]1O[C@H](COP(=O)(O)OP(=O)(O)OP(=O)(O)O)[C@@H](O)[C@H]1O [ATP]
CBFRatio (related to CBFBasal) ([1]; 30 µM, minutes 10 to 15): 1.4 ± 0.2
